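Briefly, cells in 96-well plates were exposed to five compound concentrations for 48 h, and endpoints were estimated by linear interpolation. GI50 is the concentration that inhibits growth by half.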 Calls of active or inactive are those of the source. Cut-off read from the data, not from the text of the source: active = GI50 up to about 1.1 µM and inactive = higher.
Assays:
Test in all cases: NCI tumour cell line growth inhibition, 48 h
786-0 = system: 786-0
A498 = system: A498
A549 = system: A549
ACHN = system: ACHN
CCRF-CEM = system: CCRF-CEM
DU-145 = system: DU-145
EKVX = system: EKVX
HCT-116 = system: HCT-116
HOP-62 = system: HOP-62
HOP-92 = system: HOP-92
HT-29 = system: HT-29
Hs-578T = system: Hs-578T
IGROV-1 = system: IGROV-1
K562 = system: K562
LOX IMVI = system: LOX IMVI
M14 = system: M14
MOLT-4 = system: MOLT-4
Malme-3M = system: Malme-3M
NCI-H226 = system: NCI-H226
NCI-H23 = system: NCI-H23
NCI-H460 = system: NCI-H460
NCI/ADR-RES = system: NCI/ADR-RES
OVCAR-3 = system: OVCAR-3
OVCAR-4 = system: OVCAR-4
OVCAR-5 = system: OVCAR-5
OVCAR-8 = system: OVCAR-8
RPMI-8226 = system: RPMI-8226
SF-295 = system: SF-295
SK-MEL-28 = system: SK-MEL-28
SK-MEL-5 = system: SK-MEL-5
SNB-19 = system: SNB-19
SR = system: SR
SW-620 = system: SW-620
TK-10 = system: TK-10
UACC-257 = system: UACC-257
CAKI-1 = system: CAKI-1
COLO 205 = system: COLO 205
HCC 2998 = system: HCC 2998
HCT-15 = system: HCT-15
HL-60 = system: HL-60
KM12 = system: KM12
MCF7 = system: MCF7
MDA-MB-231 = system: MDA-MB-231
MDA-MB-435 = system: MDA-MB-435
MDA-N = system: MDA-N
PC-3 = system: PC-3
SF-268 = system: SF-268
SF-539 = system: SF-539
SK-MEL-2 = system: SK-MEL-2
SK-OV-3 = system: SK-OV-3
SN12C = system: SN12C
SNB-75 = system: SNB-75
T47D = system: T47D
U-251 = system: U-251
UACC-62 = system: UACC-62
UO-31 = system: UO-31
NCI-H522 = system: NCI-H522

COc1ccc(C[C@H]2COC(=O)[C@@H]2Cc2ccc(O)cc2)cc1OC
GI50 (786-0): > 100 µM (inactive) | GI50 (A498): > 100 µM (inactive) | GI50 (A549): > 10 µM (inactive) | GI50 (ACHN): > 100 µM (inactive) | GI50 (CCRF-CEM): > 100 µM (inactive) | GI50 (DU-145): > 100 µM (inactive) | GI50 (EKVX): > 100 µM (inactive) | GI50 (HCT-116): > 100 µM (inactive) | GI50 (HOP-62): > 100 µM (inactive) | GI50 (HOP-92): > 100 µM (inactive) | GI50 (HT-29): > 100 µM (inactive) | GI50 (Hs-578T): > 100 µM (inactive) | GI50 (IGROV-1): > 100 µM (inactive) | GI50 (K562): > 100 µM (inactive) | GI50 (LOX IMVI): > 100 µM (inactive) | GI50 (M14): > 100 µM (inactive) | GI50 (MOLT-4): > 100 µM (inactive) | GI50 (Malme-3M): > 100 µM (inactive) | GI50 (NCI-H226): > 100 µM (inactive) | GI50 (NCI-H23): > 100 µM (inactive) | GI50 (NCI-H460): > 100 µM (inactive) | GI50 (NCI/ADR-RES): > 100 µM (inactive) | GI50 (OVCAR-3): > 100 µM (inactive) | GI50 (OVCAR-4): > 100 µM (inactive) | GI50 (OVCAR-5): > 100 µM (inactive) | GI50 (OVCAR-8): > 100 µM (inactive) | GI50 (RPMI-8226): > 100 µM (inactive) | GI50 (SF-295): > 100 µM (inactive) | GI50 (SK-MEL-28): > 100 µM (inactive) | GI50 (SK-MEL-5): > 100 µM (inactive) | GI50 (SNB-19): > 100 µM (inactive) | GI50 (SR): > 100 µM (inactive) | GI50 (SW-620): > 100 µM (inactive) | GI50 (TK-10): > 100 µM (inactive) | GI50 (UACC-257): > 100 µM (inactive)

C=CCOCn1cnc2c(=O)[nH]c(N)nc21
GI50 (786-0): > 100 µM (inactive) | GI50 (A498): > 100 µM (inactive) | GI50 (A549): > 100 µM (inactive) | GI50 (ACHN): > 100 µM (inactive) | GI50 (CAKI-1): > 100 µM (inactive) | GI50 (CCRF-CEM): > 100 µM (inactive) | GI50 (COLO 205): > 100 µM (inactive) | GI50 (DU-145): > 100 µM (inactive) | GI50 (EKVX): > 100 µM (inactive) | GI50 (HCC 2998): > 100 µM (inactive) | GI50 (HCT-116): > 100 µM (inactive) | GI50 (HCT-15): > 100 µM | GI50 (HL-60): > 100 µM (inactive) | GI50 (HOP-62): > 100 µM (inactive) | GI50 (Hs-578T): > 100 µM (inactive) | GI50 (IGROV-1): > 100 µM (inactive) | GI50 (K562): > 100 µM (inactive) | GI50 (KM12): > 100 µM (inactive) | GI50 (LOX IMVI): > 100 µM (inactive) | GI50 (M14): > 100 µM (inactive) | GI50 (MCF7): > 100 µM (inactive) | GI50 (MDA-MB-231): > 100 µM (inactive) | GI50 (MDA-MB-435): > 100 µM (inactive) | GI50 (MDA-N): > 100 µM (inactive) | GI50 (MOLT-4): > 100 µM (inactive) | GI50 (Malme-3M): > 100 µM (inactive) | GI50 (NCI-H226): > 100 µM (inactive) | GI50 (NCI-H23): > 100 µM (inactive) | GI50 (NCI-H460): > 100 µM (inactive) | GI50 (NCI/ADR-RES): > 100 µM (inactive) | GI50 (OVCAR-4): > 100 µM (inactive) | GI50 (OVCAR-5): > 100 µM (inactive) | GI50 (OVCAR-8): > 100 µM (inactive) | GI50 (PC-3): > 100 µM (inactive) | GI50 (RPMI-8226): > 100 µM (inactive) | GI50 (SF-268): > 100 µM (inactive) | GI50 (SF-295): > 100 µM (inactive) | GI50 (SF-539): > 100 µM (inactive) | GI50 (SK-MEL-28): > 100 µM (inactive) | GI50 (SK-MEL-2): > 100 µM (inactive) | GI50 (SK-MEL-5): > 100 µM (inactive) | GI50 (SK-OV-3): > 100 µM (inactive) | GI50 (SN12C): > 100 µM (inactive) | GI50 (SNB-19): > 100 µM (inactive) | GI50 (SNB-75): > 100 µM (inactive) | GI50 (SR): > 100 µM (inactive) | GI50 (SW-620): > 100 µM (inactive) | GI50 (T47D): > 100 µM (inactive) | GI50 (TK-10): > 100 µM (inactive) | GI50 (U-251): > 100 µM (inactive) | GI50 (UACC-62): > 100 µM (inactive) | GI50 (UO-31): > 100 µM (inactive)

Nc1ccc(C(=O)O)cc1 [AMINOBENZOIC ACID]
GI50 (786-0): > 100 µM (inactive) | GI50 (A549): > 100 µM (inactive) | GI50 (ACHN): > 100 µM (inactive) | GI50 (CAKI-1): > 100 µM (inactive) | GI50 (CCRF-CEM): > 100 µM (inactive) | GI50 (COLO 205): > 100 µM (inactive) | GI50 (DU-145): > 100 µM (inactive) | GI50 (EKVX): > 100 µM (inactive) | GI50 (HCC 2998): > 100 µM (inactive) | GI50 (HCT-116): > 100 µM (inactive) | GI50 (HCT-15): 21.1 µM | GI50 (HL-60): > 100 µM (inactive) | GI50 (HOP-62): > 100 µM (inactive) | GI50 (HOP-92): > 100 µM (inactive) | GI50 (HT-29): > 100 µM (inactive) | GI50 (Hs-578T): > 100 µM (inactive) | GI50 (IGROV-1): > 100 µM (inactive) | GI50 (K562): > 100 µM (inactive) | GI50 (KM12): > 100 µM (inactive) | GI50 (LOX IMVI): > 100 µM (inactive) | GI50 (M14): > 100 µM (inactive) | GI50 (MCF7): > 100 µM (inactive) | GI50 (MDA-MB-231): 28.1 µM (inactive) | GI50 (MDA-MB-435): > 100 µM (inactive) | GI50 (MDA-N): > 100 µM (inactive) | GI50 (MOLT-4): > 100 µM (inactive) | GI50 (Malme-3M): > 100 µM (inactive) | GI50 (NCI-H226): > 100 µM (inactive) | GI50 (NCI-H23): > 100 µM (inactive) | GI50 (NCI-H460): > 100 µM (inactive) | GI50 (NCI-H522): > 100 µM (inactive) | GI50 (NCI/ADR-RES): > 100 µM (inactive) | GI50 (OVCAR-3): > 100 µM (inactive) | GI50 (OVCAR-4): > 100 µM (inactive) | GI50 (OVCAR-5): > 100 µM (inactive) | GI50 (OVCAR-8): > 100 µM (inactive) | GI50 (PC-3): > 100 µM (inactive) | GI50 (RPMI-8226): > 100 µM (inactive) | GI50 (SF-268): > 100 µM (inactive) | GI50 (SF-295): > 100 µM (inactive) | GI50 (SF-539): > 100 µM (inactive) | GI50 (SK-MEL-28): > 100 µM (inactive) | GI50 (SK-MEL-2): > 100 µM (inactive) | GI50 (SK-MEL-5): > 100 µM (inactive) | GI50 (SN12C): 28.7 µM (inactive) | GI50 (SNB-19): > 100 µM (inactive) | GI50 (SNB-75): > 100 µM (inactive) | GI50 (SR): > 100 µM (inactive) | GI50 (SW-620): > 100 µM (inactive) | GI50 (T47D): > 100 µM (inactive) | GI50 (TK-10): > 100 µM (inactive) | GI50 (U-251): > 100 µM (inactive) | GI50 (UACC-257): > 100 µM (inactive) | GI50 (UO-31): > 100 µM (inactive)

CC(C)=CC(=O)O[C@H]1C(=O)O[C@@H]2C[C@H]3[C@H](C)C(=O)C(O[C@@H]4O[C@H](CO)[C@@H](O)[C@H](O)[C@H]4O)=C[C@]3(C)[C@H]3[C@@H](O)[C@H](O)[C@]4(C(=O)O)OC[C@]32[C@@H]14 [BRUCEOSIDE D]
GI50 (786-0): 96.6 µM (inactive) | GI50 (A498): 79.1 µM (inactive) | GI50 (CAKI-1): 90.8 µM (inactive) | GI50 (COLO 205): 65.8 µM (inactive) | GI50 (IGROV-1): 54 µM (inactive) | GI50 (MDA-MB-435): 66.5 µM (inactive) | GI50 (MDA-N): 66.2 µM (inactive) | GI50 (NCI-H23): 56.1 µM (inactive) | GI50 (OVCAR-5): 84.5 µM (inactive) | GI50 (PC-3): 71 µM (inactive) | GI50 (SNB-75): 86.1 µM (inactive) | GI50 (SW-620): 79.4 µM (inactive) | GI50 (T47D): 51.9 µM (inactive) | GI50 (TK-10): 71.9 µM (inactive) | GI50 (UACC-257): 98.9 µM (inactive) | GI50 (UACC-62): 97.5 µM (inactive)
